# Measured values: US6043367A, “Proactive antitumor compounds” (priority 1998, dated 2000)
# How the values were obtained:
# [1] = stability of the proactive compound in 95% human plasma at 37° C., HPLC; assay type: in vitro ADME; conditions: 145 μM (100 μg/ml), CO2 atmosphere, up to 48 hours, as compared with compound 23
# Procedure: The stability of the proactive compound in serum can be evaluated by using high performance liquid chromatography (HPLC) analysis. […] Aliquots are taken out from the serum solution after every pre-designed period of time, e.g., every other hour. The proteins present in serum are precipitated, acidified, and dried under reduced pressure. The dried compound is dissolved in the HPLC buffer and then analyzed by HPLC.
# (§1) 20 μl samples made from compounds 22 and 17 (moiety (3) of compound 22) were injected onto a Hypersil column (RP-18, 4.6×250 mm, 5 μm) with 45% methanol and 25 mM phosphate buffer (pH 2.5) as mobile phase at a flow rate of 1 ml/min. Eluted components were detected by fluorescence (excitation: 397 nm, emission: 482 nm) on a Gilson fluorometer. Peak areas were analyzed with Beckman system Gold software. The retention times for compound 17 and compound 22 were 9.5 and 15.8 minutes, respectively.
# E. coli β-glucuronidase = E. coli β-glucuronidase (Escherichia coli, UniProt P05804); assay: cleavage of compound 22 by β-glucuronidase in βG buffer, HPLC; assay type: biochemical; conditions: E. coli β-glucuronidase 1 μg/ml, 37° C.
# Procedure: The proactive compound can also be tested as to its ability to be cleaved by β-glucuronidase. Specifically, the enzyme and the tested compound are both added to […]. Aliquots are then taken out and evaluated in a similar fashion as described above.
# as §1
# 500 μl of compound 22 (116 μM) in βG buffer (100 mM acetic acid, 50 mM bis-tris, 50 mM triethanolamine, pH 7.0) was incubated with E. coli β-glucuronidase (1 μg/ml) at 37° C. Aliquots (30 μl) withdrawn after 0, 1, 2, 3, and 5 minutes was mixed with 300 μl of ethyl acetate, and acidified by addition of 12 mM phosphoric acid (270 μl). […] The recovery of compounds 22 and 17 from βG buffer […] were about 90% and 80%, respectively. Samples were suspended in 150 μl of mobile phase (45% methanol/25 mM phosphate buffer, pH 2.5) and analyzed by HPLC.
# [2] = test system: CaSki human cervical carcinoma cells; assay: in vitro cytotoxicity: [3H] leucine incorporation (protein synthesis) in CaSki cells
# Procedure: One way to evaluate the in vitro cytotoxic activities of a proactive compound is by incubating the tested compound with cancerous cells in serum at 37° C. for a certain period of time. After incubation, the cells can be washed and pulsed with [^3 H] leucine in leucine-free medium for another period of time. The radioactivity of trichloroacetic acid-precipitated protein, an indication of the level of protein synthesis of the cell, can then be measured.
# CaSki human cervical carcinoma cells were plated overnight in 96-well microtiter plates at 18,000 cells/well. Serial dilution of (i) compound 17 alone, (ii) compound 22 with β-glucuronidase, and (iii) compound 22 alone, in medium containing 5% fetal calf serum were added to cells for 96 hours at 37° C. Cells were subsequently washed once with sterile PBS, and then pulsed for 2 hours with [^3 H] leucine (1 μCi/well) in leucine-free medium. The radioactivity of trichloroacetic acid-precipitated protein was measured in a Beckman LS 6000 series liquid scintillation counter.
# E. coli β-glucuronidase, sequence (P05804 whole entry): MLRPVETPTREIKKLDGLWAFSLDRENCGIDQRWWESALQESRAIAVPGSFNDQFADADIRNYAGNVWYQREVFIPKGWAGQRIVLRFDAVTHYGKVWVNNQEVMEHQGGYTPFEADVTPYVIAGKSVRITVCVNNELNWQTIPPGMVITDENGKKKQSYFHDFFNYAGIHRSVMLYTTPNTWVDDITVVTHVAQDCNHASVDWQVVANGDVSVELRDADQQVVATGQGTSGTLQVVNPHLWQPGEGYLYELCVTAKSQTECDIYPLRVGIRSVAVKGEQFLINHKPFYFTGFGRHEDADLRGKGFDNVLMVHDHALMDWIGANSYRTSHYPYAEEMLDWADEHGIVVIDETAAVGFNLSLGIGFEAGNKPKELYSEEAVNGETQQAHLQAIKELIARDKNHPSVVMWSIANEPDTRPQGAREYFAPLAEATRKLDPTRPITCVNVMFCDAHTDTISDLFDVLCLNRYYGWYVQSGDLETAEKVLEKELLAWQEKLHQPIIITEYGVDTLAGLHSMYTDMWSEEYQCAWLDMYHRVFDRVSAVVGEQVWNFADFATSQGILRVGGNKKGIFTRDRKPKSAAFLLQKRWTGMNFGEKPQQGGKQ
SMILES,half life in serum [1],conversion into moiety (3) upon activation by glucuronidase (E. coli β-glucuronidase),"absorbance of compound 22 after incubation with β-glucuronidase (E. coli β-glucuronidase; after 3 minutes, compound 22 116 μM, βG buffer pH 7.0)",cytotoxicity relative to compound 17 ([2]; compound alone (no β-glucuronidase)),"change of level of protein synthesis ([2]; compound alone (no β-glucuronidase), 100 nM, 96 hours, 37° C., 5% fetal calf serum)",cytotoxicity relative to compound 17 ([2]; upon activation by glucuronidase),"decrease of level of protein synthesis ([2]; with β-glucuronidase, 100 nM, 96 hours, 37° C., 5% fetal calf serum) [fold]","absorbance of compound 17 released from compound 22 by β-glucuronidase (E. coli β-glucuronidase; 0-5 minutes, compound 22 116 μM, βG buffer pH 7.0)","decrease of level of protein synthesis ([2]; compound alone, 100 nM, 96 hours, 37° C., 5% fetal calf serum) [fold]"
CC[C@@]1(O)C(=O)OCc2c1cc1n(c2=O)Cc2cc3c(NC(=O)OCc4ccc(O[C@@H]5O[C@H](C(=O)O)[C@@H](O)[C@H](O)[C@H]5O)cc4)cccc3nc2-1 [Compound 22],surprisingly long half life in serum,"converted into its moiety (3), i.e., compound 17",almost undetectable,much less cytotoxic than compound 17,did not change,almost as cytotoxic as compound 17,~4,–,–
"CC[C@@]1(O)C(=O)OCc2c1cc1n(c2=O)Cc2cc3c(N)cccc3nc2-1 [Compound 17, reference compound]",–,–,–,–,–,–,–,increased in the first three minutes and reached a steady level after the third minute,~4
